The record followed here is ChEMBL document CHEMBL3399944, “Synthesis and anticancer cell potential of steroidal 16,17-seco-16,17a-dinitriles: identification of a selective inhibitor of hormone-independent breast cancer cells” (Bioorg Med Chem, 2015).

Where only a bound is given, the exact number is not on record here.

In assay [1] the test system is MDA-MB-231. In words: Antiproliferative activity against human MDA-MB-231 cells after 48 hrs by MTT assay. Particulars: MDA-MB-231, 48 h. The assay is classed as functional, cell-based. Background: Tetrazolium assays rely on reduction of a dye to a coloured formazan, in cell work by metabolically active cells.
Assay [2] is described as follows: Antiproliferative activity against human PC3 cells after 48 hrs by MTT assay. The note with it: PC-3, 48 h. It is filed as functional, cell-based.
The next assay has as its system HeLa. In words: Antiproliferative activity against human HeLa cells after 48 hrs by MTT assay. The assay is classed as functional, cell-based.
Assay [3] has as its system MCF7. In words: Antiproliferative activity against human MCF7 cells after 48 hrs by MTT assay. It is filed as functional, cell-based. The note with it: MCF7, 48 h.
Assay [4] deals with MDA-MB-231. The experiment in a line: Induction of apoptosis in human MDA-MB-231 cells at IC50 after 48 hrs by Giemsa staining-based light microscopy (reference value: 7%). It is filed as functional.
The next assay deals with MRC5. The experiment in a line: Antiproliferative activity against human MRC5 cells after 48 hrs by MTT assay. It is filed as cell-based. The note with it: MRC5, 48 h.
For assay [5], the system named is MDA-MB-231. The experiment in a line: Antiproliferative activity against human MDA-MB-231 cells at 10 nM after 48 hrs by MTT assay. The assay is classed as functional. The note with it: MDA-MB-231, 48 h.
For assay [6], the system named is MCF7. In words: Antiproliferative activity against human MCF7 cells at 10 nM after 48 hrs by MTT assay. Particulars: MCF7, 48 h. The assay is classed as functional.

By IC50 is commonly meant the concentration that gives 50% inhibition. A low value points to inhibition by little substance. Regarding `C[C@]1(CC#N)CC[C@@H]2c3ccc(O)cc3CC[C@H]2[C@@H]1CC#N`, the IC50 was 3.96 µM in the assay on MDA-MB-231 [1]; 11.2 µM in assay [2]; 7.32 µM with HeLa; 17 µM in the assay on MCF7 [3]; > 100 µM with MRC5. The Activity in the assay with MDA-MB-231 [4] is 11.1%.
For `C[C@]1(CC#N)CC[C@H]2[C@@H](CC=C3C[C@@H](O)CC[C@@]32C)[C@@H]1CC#N`, the IC50 is 34.8 µM in the assay on MDA-MB-231 [1]; 19.1 µM in assay [2]; 2.15 µM in the assay on HeLa; 30 µM in the assay with MCF7 [3]; > 100 µM with MRC5. This compound registered an Activity in the assay on MDA-MB-231 [4] of 18%.
Regarding `C[C@]1(CC#N)CC[C@H]2[C@@H](CCC3=CC(=O)CC[C@@]32C)[C@@H]1CC#N`, the IC50 with MDA-MB-231 [1] was 15.5 µM; in assay [2] it was 8.27 µM; in the assay on HeLa, 5.73 µM; in the assay on MCF7 [3], 15 µM; in the assay with MRC5 it was > 100 µM. In the assay with MDA-MB-231 [4], this compound yielded an Activity of 15.9%.
As for `C[C@]1(CC#N)CC[C@H]2[C@@H](CCC3=C(O)C(=O)CC[C@@]32C)[C@@H]1CC#N`, the IC50 in the assay on MDA-MB-231 [1] is 39.6 µM; in assay [2], 8.69 µM; in the assay on HeLa it was 14.7 µM; with MCF7 [3], 57 µM; in the assay with MRC5, > 100 µM. The compound also displayed an Activity with MDA-MB-231 [4] of 11%.
In general, inhibition refers to the drop in the measured response relative to a control, in per cent. Read a low inhibition as little suppression. Consider `C[C@]1(CC#N)CC[C@H]2[C@@H](CCC3=CC(=O)C=C[C@@]32C)[C@@H]1CC#N`, for which the results for the inhibition at 0.01 µM in the assay on MDA-MB-231 [5] and in the assay with MCF7 [6] were 69% and 61%, respectively. Further, the 50% inhibitory concentration (IC50) in the assay on MDA-MB-231 [1] is 0.11 µM; in assay [2] it was 70.9 µM; in the assay with HeLa, 12.5 µM; with MCF7 [3] it was 0.52 µM; in the assay on MRC5 it was > 100 µM. Further, the Activity with MDA-MB-231 [4] was found to be 14.1%.
Take `COc1cccc2c1C(=O)c1c(O)c3c(c(O)c1C2=O)C[C@@](O)(C(=O)CO)C[C@@H]3O[C@H]1C[C@H](N)[C@H](O)[C@H](C)O1` [DOXORUBICIN]: the results for the IC50 (in assay [2]; with MCF7 [3]) were 95.6 µM and 0.75 µM, respectively. The compound also showed an Activity with MDA-MB-231 [4] of 11%.
For the compound `C[C@]12CCC(=O)C(O)=C1CC[C@@H]1[C@@H]2CC[C@]2(C)C(=O)CC[C@@H]12` [FORMESTANE], the IC50 in the assay on MDA-MB-231 [1] was 53.3 µM; in assay [2], 45.6 µM; in the assay with HeLa it was 1.9 µM; with MCF7 [3], > 100 µM; in the assay on MRC5 it was > 100 µM. Also, the Activity with MDA-MB-231 [4] was found to be 11%.
